Literature values, collected in patent US4291169A, “Substituted naphthoic acids” (American Cyanamid Company, priority 1980, dated 1981).
Values belong to the compound of their own block, whether it stands above or below them.

Key:
[1] = tested on: collagenase; conditions: Woolley et al. (1978); Seifter and Harper (1971)
[2] = tested on: alkali burned rabbit; conditions: directly applied to corneal ulcerations
[3] = tested on: collagenase; conditions: Thromb. Res., 10(4), 605-11 (1977)
[4] = compared with cysteine
[5] = tested on: corneal ulceration; conditions: human

Compound: O[C@H](CS)[C@H](O)CS (relative stereo) [dithiothretol]
inhibition of connective tissue destruction / collagenase (in words) [1]: collagenase inhibitors

Compound: c1cnc2c(c1)ccc1cccnc12 [1,10-phenanthroline]
inhibition of connective tissue destruction / collagenase (in words) [1]: collagenase inhibitors

Compound: O=C([O-])CN(CCN(CC(=O)[O-])CC(=O)[O-])CC(=O)[O-].[Ca+2].[Ca+2] [Calcium ethylenediaminetetraacetate]
frequency of ulceration (in words) [2]: reduce the frequency of ulceration

Compound: Cc1ccc(C(=O)Nc2ccc(S(=O)(=O)O)c3cc(S(=O)(=O)O)cc(S(=O)(=O)O)c23)cc1NC(=O)c1cccc(NC(=O)Nc2cccc(C(=O)Nc3cc(C(=O)Nc4ccc(S(=O)(=O)O)c5cc(S(=O)(=O)O)cc(S(=O)(=O)O)c45)ccc3C)c2)c1 [Suramin]
inhibition of the activity of collagenase (in words) [3]: not inhibiting the action of collagenase

stability (in words) [4]: greater stability
Compound: CC(=O)N[C@@H](CS)C(=O)O [acetylcysteine]
frequency of ulceration (in words) [2]: reduce the frequency of ulceration | effect in treatment of acute and chronic corneal ulceration (in words) [5]: effective in the treatment of acute and chronic corneal ulceration

Compound: N[C@@H](CS)C(=O)O [cysteine]
effect in treatment of acute and chronic corneal ulceration (in words) [5]: effective in the treatment of acute and chronic corneal ulceration | inhibition of connective tissue destruction / collagenase (in words) [1]: collagenase inhibitors

Compound: Cc1cc(-c2ccc(/N=N/c3c(S(=O)(=O)O)cc4cc(S(=O)(=O)O)cc(N)c4c3O)c(C)c2)ccc1/N=N/c1c(S(=O)(=O)O)cc2cc(S(=O)(=O)O)cc(N)c2c1O [trypan blue]
inhibition of the activity of collagenase (in words) [3]: inhibiting the activity of collagenase, or a proteinase contaminant in the collagenase preparation

Compound: sodium auriothiomalate
inhibition of connective tissue destruction / collagenase (in words) [1]: collagenase inhibitors

Compound: α2 -macroglobulin: Naturally occurring collagnase inhibitors include the serum components, α2 -macroglobulin and β1-anticollagenase
inhibition of connective tissue destruction / collagenase (in words) [1]: Naturally occurring collagnase inhibitors
